In US10988523B2, “Modified lipidated Relaxin B chain peptides and their therapeutic use” (Sanofi, priority 2018, dated 2021):
*1 amine or outer side, *2 acyl side, *3 side chain or, on linkers, in order; H or OH if unused. Where a SMILES comes first, the peptide text is derived from it. Side-chain parts run from the residue outwards. [ ]: non-standard residue; d: D form. The star is where a group is joined. αMeW = C[C@](N)(Cc1c[nH]c2ccccc12)C(=O)O; γGlu = O=C(O)[C@H](CCC(=O)[*:2])N[*:1]; Stearoyl = CCCCCCCCCCCCCCCCCC(=O)*; Palmitoyl = CCCCCCCCCCCCCCCC(=O)*; Cit = NC(=O)NCCC[C@H](N)C(=O)O; PEG4 = NCCOCCOCCOCCOCCC(=O)O; αMeK = C[C@](N)(CCCCN)C(=O)O; Nle = CCCC[C@H](N)C(=O)O; AEEA = NCCOCCOCC(=O)O; Aib = CC(C)(N)C(=O)O

Biological target: T1, RXFP1 (Homo sapiens, UniProt Q9HBX9)
T1 construct: OVCAR5 cells expressing endogenous RXFP1; endogenous in cells; host or cells: OVCAR5 cells
T1 sequence (Q9HBX9 1-757): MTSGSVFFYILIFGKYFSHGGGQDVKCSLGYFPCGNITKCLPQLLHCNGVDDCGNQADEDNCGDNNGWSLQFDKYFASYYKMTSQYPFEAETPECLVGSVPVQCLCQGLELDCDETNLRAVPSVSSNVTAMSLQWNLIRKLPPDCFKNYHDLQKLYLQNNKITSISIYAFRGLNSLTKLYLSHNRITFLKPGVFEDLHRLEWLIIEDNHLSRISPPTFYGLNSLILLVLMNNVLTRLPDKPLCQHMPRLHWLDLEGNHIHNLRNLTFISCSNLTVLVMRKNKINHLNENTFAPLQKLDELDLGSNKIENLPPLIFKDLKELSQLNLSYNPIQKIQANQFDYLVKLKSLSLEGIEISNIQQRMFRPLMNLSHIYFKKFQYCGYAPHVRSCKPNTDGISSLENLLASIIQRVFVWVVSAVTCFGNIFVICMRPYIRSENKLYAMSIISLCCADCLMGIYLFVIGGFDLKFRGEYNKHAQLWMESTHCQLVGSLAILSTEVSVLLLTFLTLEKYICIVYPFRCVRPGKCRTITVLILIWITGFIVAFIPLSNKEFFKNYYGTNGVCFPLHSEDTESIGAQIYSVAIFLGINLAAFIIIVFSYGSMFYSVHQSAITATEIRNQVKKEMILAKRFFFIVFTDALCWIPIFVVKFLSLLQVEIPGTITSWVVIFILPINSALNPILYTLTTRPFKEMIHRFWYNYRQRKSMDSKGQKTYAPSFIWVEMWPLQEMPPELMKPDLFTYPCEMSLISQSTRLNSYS
Assay: OVCAR5 cAMP assay (HTRF), RXFP1 agonist activity
Format: cell-based
Conditions: for Emax: OVCAR-5, maximal cAMP relative to H2-relaxin maximum (100%), read-out: EMax, OVCAR 5 cells (cAMP); for EC50: OVCAR5 cells, cAMP HTRF, read-out: EC50 (nM), OVCAR 5 cells (cAMP)
How it was run: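 OVCAR5 cells (endogenous RXFP1) pretreated 40 min at 37° C with 1 mM IBMX, then exposed to peptides in serum-free medium for 30 min at 37° C. Lysate cAMP read by HTRF; EC50 from variable-slope sigmoidal fit; Emax as % of H2-relaxin maximal cAMP in same run.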

Row | Compound | Emax [%] | EC50 [nM]
1 | CCCCCCCCCCCCCCCCCC(=O)N[C@@H](CCC(=O)N[C@@H](CCC(=O)N[C@@H](CCC(=O)NCCCC[C@H](NC(=O)CCOCCOCCOCCOCCNC(=O)[C@H](CCCCNC(C)=O)NC(=O)[C@H](CCCCN)NC(=O)[C@H](CCCNC(=N)N)NC(=O)C(C)(C)NC(=O)[C@H](CO)NC(=O)[C@H](Cc1c[nH]c2ccccc12)NC(=O)[C@@H](NC(=O)[C@H](CO)NC(=O)[C@H](CCCC)NC(=O)CNC(=O)[C@H](CCC(=O)O)NC(=O)C(C)(C)NC(=O)C(C)(C)NC(=O)[C@@H](NC(=O)[C@H](CCCCNC(C)=O)NC(=O)[C@H](C)NC(=O)[C@H](CCCNC(=N)N)NC(=O)[C@@H](NC(=O)[C@H](CCCCN)NC(=O)[C@H](CCC(=O)O)NC(=O)[C@H](CCCNC(=N)N)NC(=O)CNC(=O)[C@H](CCC(=O)O)NC(=O)[C@H](CC(C)C)NC(C)=O)C(C)C)[C@@H](C)CC)[C@@H](C)O)C(N)=O)C(=O)O)C(=O)O)C(=O)O [compound 123] (Ac-LEGREKVRAK(Ac)I[Aib][Aib]EG[Nle]STWS[Aib]RKK(Ac)[PEG4]K([γGlu-γGlu-γGlu-Stearoyl])-NH2) | 88 | –
2 | CCCCCCCCCCCCCCCCCC(=O)N[C@@H](CCC(=O)N[C@@H](CCC(=O)N[C@@H](CCC(=O)NCCCC[C@H](NC(=O)CCOCCOCCOCCOCCNC(=O)CCOCCOCCOCCOCCNC(=O)[C@H](CCCCNC(C)=O)NC(=O)[C@H](CCCCN)NC(=O)[C@H](CCCNC(=N)N)NC(=O)C(C)(C)NC(=O)[C@H](CO)NC(=O)[C@H](Cc1c[nH]c2ccccc12)NC(=O)[C@@H](NC(=O)[C@H](CO)NC(=O)[C@H](CCCC)NC(=O)CNC(=O)[C@H](CCC(=O)O)NC(=O)C(C)(C)NC(=O)C(C)(C)NC(=O)[C@@H](NC(=O)[C@H](CCCCNC(C)=O)NC(=O)[C@H](C)NC(=O)[C@H](CCCNC(=N)N)NC(=O)[C@@H](NC(=O)[C@H](CCCCN)NC(=O)[C@H](CCC(=O)O)NC(=O)[C@H](CCCNC(=N)N)NC(=O)CNC(=O)[C@H](CCC(=O)O)NC(=O)[C@H](CC(C)C)NC(C)=O)C(C)C)[C@@H](C)CC)[C@@H](C)O)C(N)=O)C(=O)O)C(=O)O)C(=O)O [compound 124] (Ac-LEGREKVRAK(Ac)I[Aib][Aib]EG[Nle]STWS[Aib]RKK(Ac)[PEG4][PEG4]K([γGlu-γGlu-γGlu-Stearoyl])-NH2) | 88 | –
3 | CCCCCCCCCCCCCCCC(=O)N[C@@H](CCC(=O)N[C@@H](CCC(=O)N[C@@H](CCC(=O)N[C@@H](CCC(=O)NCCCC[C@H](NC(=O)COCCOCCNC(=O)COCCOCCNC(=O)COCCOCCNC(=O)[C@H](CCCCNC(C)=O)NC(=O)[C@H](CCCCN)NC(=O)[C@H](CCCNC(=N)N)NC(=O)[C@](C)(CCCCN)NC(=O)[C@H](CO)NC(=O)[C@](C)(Cc1c[nH]c2ccccc12)NC(=O)[C@@H](NC(=O)[C@H](CO)NC(=O)[C@H](CCCC)NC(=O)CNC(=O)[C@H](CCC(=O)O)NC(=O)C(C)(C)NC(=O)C(C)(C)NC(=O)[C@@H](NC(=O)[C@H](CCCCNC(C)=O)NC(=O)[C@H](C)NC(=O)[C@H](CCCNC(=N)N)NC(=O)[C@@H](NC(=O)[C@H](CCCCN)NC(=O)[C@H](CCC(=O)O)NC(=O)[C@H](CCCNC(=N)N)NC(=O)CNC(=O)[C@H](CCC(=O)O)NC(=O)[C@H](CC(C)C)NC(C)=O)C(C)C)[C@@H](C)CC)[C@@H](C)O)C(N)=O)C(=O)O)C(=O)O)C(=O)O)C(=O)O [compound 125] (Ac-LEGREKVRAK(Ac)I[Aib][Aib]EG[Nle]ST[αMeW]S[αMeK]RKK(Ac)[AEEA][AEEA][AEEA]K([γGlu-γGlu-γGlu-γGlu-Palmitoyl])-NH2) | 89 | 0.1
4 | CCCCCCCCCCCCCCCCCC(=O)N[C@@H](CCC(=O)N[C@@H](CCC(=O)N[C@@H](CCC(=O)NCCOCCOCC(=O)NCCOCCOCC(=O)NCCOCCOCC(=O)NCCCC[C@H](NC(=O)[C@H](CCCCNC(C)=O)NC(=O)[C@H](C)NC(=O)[C@H](CCCNC(N)=O)NC(=O)C(C)(C)NC(=O)[C@H](CO)NC(=O)[C@H](Cc1c[nH]c2ccccc12)NC(=O)[C@@H](NC(=O)[C@H](CO)NC(=O)[C@H](CCCC)NC(=O)CNC(=O)[C@H](CCC(=O)O)NC(=O)C(C)(C)NC(=O)C(C)(C)NC(=O)[C@@H](NC(=O)[C@H](CCCCNC(C)=O)NC(=O)[C@H](C)NC(=O)[C@H](CCCNC(=N)N)NC(=O)[C@@H](NC(=O)[C@H](CCCCN)NC(=O)[C@H](CCC(=O)O)NC(=O)[C@H](CCCNC(=N)N)NC(=O)CNC(=O)[C@H](CCC(=O)O)NC(=O)[C@H](CC(C)C)NC(C)=O)C(C)C)[C@@H](C)CC)[C@@H](C)O)C(N)=O)C(=O)O)C(=O)O)C(=O)O [compound 126] (Ac-LEGREKVRAK(Ac)I[Aib][Aib]EG[Nle]STWS[Aib][Cit]AK(Ac)K([AEEA-AEEA-AEEA-γGlu-γGlu-γGlu-Stearoyl])-NH2) | 91 | –
5 | CCCCCCCCCCCCCCCCCC(=O)N[C@@H](CCC(=O)N[C@@H](CCC(=O)N[C@@H](CCC(=O)N[C@@H](CCC(=O)NCCOCCOCC(=O)NCCOCCOCC(=O)NCCOCCOCC(=O)NCCCC[C@H](NC(=O)[C@H](CCCCNC(C)=O)NC(=O)[C@H](CCCCN)NC(=O)[C@H](CCCNC(=N)N)NC(=O)C(C)(C)NC(=O)[C@H](CO)NC(=O)[C@H](Cc1c[nH]c2ccccc12)NC(=O)[C@@H](NC(=O)[C@H](CO)NC(=O)[C@H](CCCC)NC(=O)CNC(=O)[C@H](CCC(=O)O)NC(=O)C(C)(C)NC(=O)C(C)(C)NC(=O)[C@@H](NC(=O)[C@H](CCCCNC(C)=O)NC(=O)[C@H](C)NC(=O)[C@H](CCCNC(=N)N)NC(=O)[C@@H](NC(=O)[C@H](CCCCN)NC(=O)[C@H](CCC(=O)O)NC(=O)[C@H](CCCNC(=N)N)NC(=O)CNC(=O)[C@H](CCC(=O)O)NC(=O)[C@H](CC(C)C)NC(C)=O)C(C)C)[C@@H](C)CC)[C@@H](C)O)C(N)=O)C(=O)O)C(=O)O)C(=O)O)C(=O)O [compound 128] (Ac-LEGREKVRAK(Ac)I[Aib][Aib]EG[Nle]STWS[Aib]RKK(Ac)K([AEEA-AEEA-AEEA-γGlu-γGlu-γGlu-γGlu-Stearoyl])-NH2) | 91 | 0.22
6 | CCCCCCCCCCCCCCCCCC(=O)N[C@@H](CCC(=O)N[C@@H](CCC(=O)N[C@@H](CCC(=O)NCCOCCOCC(=O)NCCOCCOCC(=O)NCCOCCOCC(=O)NCCCC[C@H](NC(=O)[C@H](CCCCNC(C)=O)NC(=O)[C@H](CCCCN)NC(=O)[C@H](CCCNC(N)=O)NC(=O)[C@](C)(CCCCN)NC(=O)[C@H](CO)NC(=O)[C@H](Cc1c[nH]c2ccccc12)NC(=O)[C@@H](NC(=O)[C@H](CO)NC(=O)[C@H](CCCC)NC(=O)CNC(=O)[C@H](CCC(=O)O)NC(=O)C(C)(C)NC(=O)C(C)(C)NC(=O)[C@@H](NC(=O)[C@H](CCCCNC(C)=O)NC(=O)[C@H](C)NC(=O)[C@H](CCCNC(=N)N)NC(=O)[C@@H](NC(=O)[C@H](CCCCN)NC(=O)[C@H](CCC(=O)O)NC(=O)[C@H](CCCNC(=N)N)NC(=O)CNC(=O)[C@H](CCC(=O)O)NC(=O)[C@H](CC(C)C)NC(C)=O)C(C)C)[C@@H](C)CC)[C@@H](C)O)C(N)=O)C(=O)O)C(=O)O)C(=O)O [compound 129] (Ac-LEGREKVRAK(Ac)I[Aib][Aib]EG[Nle]STWS[αMeK][Cit]KK(Ac)K([AEEA-AEEA-AEEA-γGlu-γGlu-γGlu-Stearoyl])-NH2) | 89 | 1
7 | CCCCCCCCCCCCCCCC(=O)N[C@@H](CCC(=O)N[C@@H](CCC(=O)N[C@@H](CCC(=O)N[C@@H](CCC(=O)NCCOCCOCC(=O)NCCOCCOCC(=O)NCCOCCOCC(=O)NCCOCCOCC(=O)NCCCC[C@H](NC(=O)[C@H](CCCCNC(C)=O)NC(=O)[C@H](CCCCN)NC(=O)[C@H](CCCNC(=N)N)NC(=O)C(C)(C)NC(=O)[C@H](CO)NC(=O)[C@H](Cc1c[nH]c2ccccc12)NC(=O)[C@@H](NC(=O)[C@H](CO)NC(=O)[C@H](CCCC)NC(=O)CNC(=O)[C@H](CCC(=O)O)NC(=O)C(C)(C)NC(=O)C(C)(C)NC(=O)[C@@H](NC(=O)[C@H](CCCCNC(C)=O)NC(=O)[C@H](C)NC(=O)[C@H](CCCNC(=N)N)NC(=O)[C@@H](NC(=O)[C@H](CCCCN)NC(=O)[C@H](CCC(=O)O)NC(=O)[C@H](CCCNC(=N)N)NC(=O)CNC(=O)[C@H](CCC(=O)O)NC(=O)[C@H](CC(C)C)NC(C)=O)C(C)C)[C@@H](C)CC)[C@@H](C)O)C(N)=O)C(=O)O)C(=O)O)C(=O)O)C(=O)O [compound 130] (Ac-LEGREKVRAK(Ac)I[Aib][Aib]EG[Nle]STWS[Aib]RKK(Ac)K([AEEA-AEEA-AEEA-AEEA-γGlu-γGlu-γGlu-γGlu-Palmitoyl])-NH2) | 93 | –
